In this experiment the test system is Aβ 42 production. As to the kind of experiment: Quantification of Aβ Peptide in Culture of Neurons from Rat Fetus Brain. It is filed as cell-based. Conditions: Neuron, 72 h; rat primary neuronal culture (cerebral cortex, embryonic day 18 Wistar rats); medium collected three days after addition of the compound; Aβ ELISA; read-out: Effect of reducing Aβ 42 production IC50. The procedure:
Quantification of Aβ Peptide in Culture of Neurons from Rat Fetus Brain
(1) Rat Primary Neuronal Culture
Primary neuronal cultures were prepared from the cerebral cortex of embryonic day 18 Wistar rats (Charles River Japan, Yokohama, Japan). Specifically, the embryos were aseptically removed from pregnant rats under ether anesthesia. The brain was isolated from the embryo and immersed in an ice-cold L-15 medium (Invitrogen Corp. Cat #11415-064, Carlsbad, Calif., USA, or SIGMA L1518, for example). The cerebral cortex was collected from the isolated brain under a stereoscopic microscope. The cerebral cortex fragments collected were enzymatically treated in an enzyme solution containing 0.25% trypsin (Invitrogen Corp. Cat #15050-065, Carlsbad, Calif., USA) and 0.01% DNase (Sigma D5025, St. Louis, Mo., USA) at 37° C. for 30 minutes to disperse the cells. Here, the enzymatic reaction was stopped by adding inactivated horse serum to the solution. The enzymatically treated solution was centrifuged at 1,500 rpm for five minutes to remove the supernatant. 5 to 10 ml of a medium was added to the resulting cell mass. Neurobasal medium (Invitrogen Corp. Cat #21103-049, Carlsbad, Calif., USA) supplemented with 2% B27 supplement (Invitrogen Corp. Cat #17504-044, Carlsbad, Calif., USA), 25 μM 2-mercaptoethanol (2-ME, WAKO Cat #139-06861, Osaka, Japan), 0.5 mM L-glutamine (Invitrogen Corp. Cat #25030-081, Carlsbad, Calif., USA), and Antibiotics-Antimycotics (Invitrogen Corp. Cat #15240-062, Carlsbad, Calif., USA) was used as the medium (Neurobasal/B27/2-ME). However, the above Neurobasal medium not supplemented with 2-ME (Neurobasal/B27) was used for the assay. The cells were redispersed by mild pipetting of the cell mass to which the medium was added. The cell dispersion was filtered through a 40-μm nylon mesh (Cell Strainer, Cat #35-2340, Becton Dickinson Labware, Franklin Lakes, N.J., USA) to remove the remaining cell mass, and thus a neuronal cell suspension was obtained. The neuronal cell suspension was diluted with the medium and then plated in a volume of 100 μl/well at an initial cell density of 5×10^5 cells/cm^2 in a 96-well polystyrene culture plate pre-coated with poly-L or D-lysine (Falcon Cat #35-3075, Becton Dickinson Labware, Franklin Lakes, N.J., USA coated with poly-L-lysine using the method shown below, or BIOCOAT™ cell environments Poly-D-lysine cell ware 96-well plate, Cat #35-6461, Becton Dickinson Labware, Franklin Lakes, N.J., USA). Poly-L-lysine coating was carried out as follows. 100 μg/ml of a poly-L-lysine (SIGMA P2636, St. Louis, Mo., USA) solution was aseptically prepared with a 0.15 M borate buffer (pH 8.5). 100 μl/well of the solution was added to the 96-well polystyrene culture plate and incubated at room temperature for one or more hours or at 4° C. overnight or longer. The coated 96-well polystyrene culture plate was washed with sterile water four or more times, and then dried or rinsed with, for example, sterile PBS or medium, and used for cell plating. The plated cells were cultured in the culture plate at 37° C. in 5% CO2-95% air for one day. Then, the total amount of the medium was replaced with a fresh Neurobasal™/B27/2-ME medium, and then the cells were cultured for further three days.
The drug was added to the culture plate on Day 4 of culture as follows. The total amount of the medium was removed from the wells, and 180 μl/well of Neurobasal medium not containing 2-ME and containing 2% B-27 (Neurobasal/B27) was added thereto. A solution of the test compound in dimethyl sulfoxide (hereinafter abbreviated as DMSO) was diluted with Neurobasal/B27 at 10-fold of the final concentration. 20 μl/well of the dilution was added to and sufficiently mixed with the medium. The final DMSO concentration was 1% or less. Only DMSO was added to the control group.
The cells were cultured for three days after addition of the compound, and the total amount of the medium was collected. […]
In general, IC50 refers to the midpoint of a concentration-inhibition curve. As to `COc1cc(/C=C/c2nc3n(n2)CCCC3c2ccc(C)cc2)ccc1-n1cnc(C)c1` (single isomer, unassigned) [Example 151, (−)-2-{(E)-2-[3-methoxy-4-(4-methyl-1H-imidazol-1-yl)phenyl]vinyl}-8-p-tolyl-5,6,7,8-tetrahydro[1,2,4]triazolo[1,5-a]pyridine], the IC50 turned out to be 16 nM.

As for `COc1cc(/C=C/c2nc3n(n2)CCCC3(O)c2ccc(Cl)cc2)ccc1-n1cnc(C)c1` (single isomer, unassigned) [Example 153, (−)-8-(4-chlorophenyl)-2-{(E)-2-[3-methoxy-4-(4-methyl-1H-imidazol-1-yl)phenyl]vinyl}-5,6,7,8-tetrahydro[1,2,4]triazolo[1,5-a]pyridin-8-ol], the IC50 was 31 nM.

Turning to `COc1cc(/C=C/c2nc3n(n2)CCC[C@]3(O)c2ccc(C)cc2)ccc1-n1cnc(C)c1` (single isomer, unassigned) [Example 155, (−)-2-{(E)-2-[3-methoxy-4-(4-methyl-1H-imidazol-1-yl)phenyl]vinyl}-8-p-tolyl-5,6,7,8-tetrahydro[1,2,4]triazolo[1,5-a]pyridin-8-ol], the IC50 turned out to be 39 nM.

Regarding `COc1cc(/C=C/c2nc3n(n2)CCC[C@H]3c2ccccc2)ccc1-n1cnc(C)c1` (single isomer, unassigned) [Example 172, (−)-2-{(E)-2-[3-methoxy-4-(4-methyl-1H-imidazol-1-yl)phenyl]vinyl}-8-phenyl-5,6,7,8-tetrahydro[1,2,4]triazolo[1,5-a]pyridine], the IC50 is 11 nM.

`COc1cc(/C=C/c2nc3n(n2)CCC[C@H]3c2ccccc2Br)ccc1-n1cnc(C)c1` (single isomer, unassigned) [Example 174, (−)-8-(2-bromophenyl)-2-{(E)-2-[3-methoxy-4-(4-methyl-1H-imidazol-1-yl)phenyl]vinyl}-5,6,7,8-tetrahydro[1,2,4]triazolo[1,5-a]pyridine]: the IC50 amounted to 23 nM.

In the case of `COc1cc(/C=C/c2nc3n(n2)CCOC3c2ccc(Br)cc2)ccc1-n1cnc(C)c1` (single isomer, unassigned; (-)) [Example 143, (−)-8-(4-bromophenyl)-2-{(E)-2-[3-methoxy-4-(4-methyl-1H-imidazol-1-yl)phenyl]vinyl}-5,6-dihydro-8H-[1,2,4]triazolo[5,1-c][1,4]oxazine], the IC50 was 22 nM.

On to `COc1cc(/C=C/c2nc(-c3ccc(F)cc3)c[nH]2)ccc1-n1cnc(C)c1` [Example 1, 4-(4-fluorophenyl)-2-{(E)-2-[3-methoxy-4-(4-methyl-1H-imidazol-1-yl)phenyl]vinyl}-1H-imidazole], for which the IC50 is 45 nM.

In the case of `COc1cc(/C=C/c2nc(-c3ccccc3)c[nH]2)ccc1-n1cnc(C)c1` [Example 4, 2-{(E)-2-[3-methoxy-4-(4-methyl-1H-imidazol-1-yl)phenyl]vinyl}-4-phenyl-1H-imidazole], the IC50 is 76 nM.

As to `COc1cc(/C=C/c2nc(-c3ccccc3)cn2C)ccc1-n1cnc(C)c1` [Example 5, 2-{(E)-2-[3-methoxy-4-(4-methyl-1H-imidazol-1-yl)phenyl]vinyl}-1-methyl-4-phenyl-1H-imidazole], the IC50 was 18 nM.

In the case of `COC(=O)c1[nH]c(/C=C/c2ccc(-n3cnc(C)c3)c(OC)c2)nc1-c1ccc(F)cc1` [Example 6, methyl 5-(4-fluorophenyl)-2-{(E)-2-[3-methoxy-4-(4-methyl-1H-imidazol-1-yl)phenyl]vinyl}-1H-imidazole-4-carboxylate], the IC50 was 60 nM.

Consider `COc1cc(/C=C/c2nc(-c3ccc(F)cc3)c(CO)[nH]2)ccc1-n1cnc(C)c1` [Example 7, 5-(4-fluorophenyl)-2-{(E)-2-[3-methoxy-4-(4-methyl-1H-imidazol-1-yl)phenyl]vinyl}-(1H-imidazol-4-yl)methanol], for which the IC50 amounted to 67 nM.

As for `COc1cc(/C=C/c2nc(-c3ccc(F)cc3)c(C(=O)NCCCl)[nH]2)ccc1-n1cnc(C)c1` [Example 9, 5-(4-fluorophenyl)-2-{(E)-2-[3-methoxy-4-(4-methyl-1H-imidazol-1-yl)phenyl]vinyl}-1H-imidazole-4-carboxylic acid (2-chloroethyl)amide], the IC50 turned out to be 83 nM.

The values are drawn from patent publication US7973033B2, “Multi-cyclic cinnamide derivatives” (Eisai R&D Management Co., Ltd., priority 2006, dated 2011).
